Assay results: US20240226343A1, “NEUROPEPTIDE Y1 RECEPTOR (NPY1R) TARGETED THERAPEUTICS AND USES THEREOF” (RADIONETICS ONCOLOGY, INC., priority 2022, published 2024)

target: T1, hNPY1R (Homo sapiens, UniProt P25929); assay: NPY1R binding assay: SK-N-MC membranes, [125I]-Peptide YY (human) competition; conditions: data obtained after 60 minutes at 37° C.; SK-N-MC membranes; [125I]-Peptide YY 0.05 nM; read-out: hNPY1R binding Ki* †
T1 construct: SK-N-MC cells endogenously expressing the NPY1R receptor; endogenous in cells; host or cells: SK-N-MC cells (crude membrane fractions)
T1 sequence (P25929 1-384): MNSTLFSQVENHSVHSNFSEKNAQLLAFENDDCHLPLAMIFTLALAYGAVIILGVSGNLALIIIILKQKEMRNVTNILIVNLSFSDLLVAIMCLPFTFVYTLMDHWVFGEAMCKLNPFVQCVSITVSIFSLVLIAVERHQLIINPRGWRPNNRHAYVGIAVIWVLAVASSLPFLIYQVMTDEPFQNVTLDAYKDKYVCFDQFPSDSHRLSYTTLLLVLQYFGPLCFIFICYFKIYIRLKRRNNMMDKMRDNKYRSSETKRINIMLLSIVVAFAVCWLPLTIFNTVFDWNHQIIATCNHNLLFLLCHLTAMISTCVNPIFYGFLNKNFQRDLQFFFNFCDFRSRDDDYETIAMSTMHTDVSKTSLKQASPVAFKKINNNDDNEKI
Procedure: Crude membrane fractions are prepared from SK-N-MC cells endogenously expressing the NPY1R receptor. The cells are grown to 85-100% confluence on standard tissue culture dishes in Eagle's Minimum Essential Medium supplemented with 10% dialyzed FBS. To prepare membranes, cells are scraped and collected in 1× Dulbecco's phosphate buffered saline and then pelleted at 1000 RPM's. The cell pellet is reconstituted in membrane preparation buffer (20 mM HEPES, 6 mM MgCl2 and 1 mM EGTA, protease inhibitor tablets, pH 7.4) and placed in a cell disruption vessel at 1000 PSI for 30 minutes on ice. The pressurized contents are then released and spun down at 1000 RPMs and the supernatant is collected and further centrifuged at 15,000 RPMs to pellet the membranes. The membrane pellet is resuspended in membrane preparation buffer, snap frozen and stored at −80° C. for later use.
[…] Assay contents are then filtered through unifilter GF/C microplates and washed with 9×400 μl of cold wash buffer (25 mM HEPES, 5 mM MgCl2, 1 mM CaCl2), 500 mM NaCl, 0.1% Tween-20, pH 7.4). Assay plates are read using a Top Count NXT and Ki values for compounds are determined using a GraphPad Prism 6 non-linear regression analysis.

Row | SMILES | Ki [nM]
1 | CCC(=O)NCCNC(=O)/N=C(/N)NCCC[C@@H](NC(=O)C(c1ccccc1)c1cccc(OCCCCNC(=O)CN2CCN(C(=O)CN3CCN(CC(=O)O)CCN(CC(=O)O)CCN(CC(=O)O)CC3)CC2)c1)C(=O)NCc1ccc(O)cc1 (single isomer, unassigned) [Compound 118A] | < 10
2 | CCC(=O)NCCNC(=O)/N=C(/N)NCCC[C@@H](NC(=O)C(c1ccccc1)c1cccc(OCCCCNC(=O)CN2CCN(C(=O)CN3CCN(CC(=O)O)CCN(CC(=O)O)CCN(CC(=O)O)CC3)CC2)c1)C(=O)NCc1ccc(O)cc1 (single isomer, unassigned) [Compound 118B] | < 10
3 | CCC(=O)NCCNC(=O)/N=C(/N)NCCC[C@@H](NC(=O)C(c1ccccc1)c1ccc(NCCCNc2c(NCCNC(=O)CN3CCN(CC(=O)O)CCN(CC(=O)O)CCN(CC(=O)O)CC3)c(=O)c2=O)cc1)C(=O)NCc1ccc(O)cc1 (single isomer, unassigned) [Compound 124A] | 10 to 100
4 | CCC(=O)NCCNC(=O)/N=C(/N)NCCC[C@@H](NC(=O)C(c1ccccc1)c1ccc(NCCCNc2c(NCCNC(=O)CN3CCN(CC(=O)O)CCN(CC(=O)O)CCN(CC(=O)O)CC3)c(=O)c2=O)cc1)C(=O)NCc1ccc(O)cc1 (single isomer, unassigned) [Compound 124B] | < 10

same assay, conditions: data obtained after 120 minutes at rt; SK-N-MC membranes; [125I]-Peptide YY; read-out: hNPY.R binding Ki* ††

Row | SMILES | Ki [nM]
5 | CCC(=O)NCCNC(=O)/N=C(/N)NCCC[C@@H](NC(=O)C(c1ccccc1)c1cccc(OCCCCNC(=O)CN2CCN(C(=O)CN3CCN(CC(=O)O)CCN(CC(=O)O)CCN(CC(=O)O)CC3)CC2)c1)C(=O)NCc1ccc(O)cc1 (single isomer, unassigned) [Compound 118A] | < 10
6 | CCC(=O)NCCNC(=O)/N=C(/N)NCCC[C@@H](NC(=O)C(c1ccccc1)c1cccc(NCCCNc2c(NCCNC(=O)CN3CCN(CC(=O)O)CCN(CC(=O)O)CCN(CC(=O)O)CC3)c(=O)c2=O)c1)C(=O)NCc1ccc(O)cc1 (single isomer, unassigned) [Compound 120A] | < 10
7 | CCC(=O)NCCNC(=O)/N=C(/N)NCCC[C@@H](NC(=O)C(c1ccccc1)c1cccc(NCCCNc2c(NCCNC(=O)CN3CCN(CC(=O)O)CCN(CC(=O)O)CCN(CC(=O)O)CC3)c(=O)c2=O)c1)C(=O)NCc1ccc(O)cc1 (single isomer, unassigned) [Compound 120B] | < 10
8 | CCC(=O)NCCNC(=O)/N=C(/N)NCCC[C@@H](NC(=O)C(c1ccccc1)c1cccc(NCCCNC(=O)CCOCCNC(=O)CN2CCN(CC(=O)O)CCN(CC(=O)O)CCN(CC(=O)O)CC2)c1)C(=O)NCc1ccc(O)cc1 (single isomer, unassigned) [Compound 121A] | < 10
9 | CCC(=O)NCCNC(=O)/N=C(/N)NCCC[C@@H](NC(=O)C(c1ccccc1)c1cccc(NCCCNC(=O)CCOCCNC(=O)CN2CCN(CC(=O)O)CCN(CC(=O)O)CCN(CC(=O)O)CC2)c1)C(=O)NCc1ccc(O)cc1 (single isomer, unassigned) [Compound 121B] | < 10
10 | CCC(=O)NCCNC(=O)/N=C(/N)NCCC[C@@H](NC(=O)C(c1ccccc1)c1ccc(NCCCNc2c(NCCNC(=O)CN3CCN(CC(=O)O)CCN(CC(=O)O)CCN(CC(=O)O)CC3)c(=O)c2=O)cc1)C(=O)NCc1ccc(O)cc1 (single isomer, unassigned) [Compound 124A] | < 10
11 | CCC(=O)NCCNC(=O)/N=C(/N)NCCC[C@@H](NC(=O)C(c1ccccc1)c1ccc(NCCCNc2c(NCCNC(=O)CN3CCN(CC(=O)O)CCN(CC(=O)O)CCN(CC(=O)O)CC3)c(=O)c2=O)cc1)C(=O)NCc1ccc(O)cc1 (single isomer, unassigned) [Compound 124B] | < 10
12 | CCC(=O)NCCNC(=O)/N=C(/N)NCCC[C@@H](NC(=O)C(c1ccccc1)c1ccc(NCCCNC(=O)[C@H](N)CCCCNC(=O)CN2CCN(CC(=O)O)CCN(CC(=O)O)CCN(CC(=O)O)CC2)cc1)C(=O)NCc1ccc(O)cc1 (single isomer, unassigned) [Compound 132A] | < 10
13 | CCC(=O)NCCNC(=O)/N=C(/N)NCCC[C@@H](NC(=O)C(c1ccccc1)c1ccc(NCCCNC(=O)[C@H](N)CCCCNC(=O)CN2CCN(CC(=O)O)CCN(CC(=O)O)CCN(CC(=O)O)CC2)cc1)C(=O)NCc1ccc(O)cc1 (single isomer, unassigned) [Compound 132B] | < 10
14 | CCC(=O)NCCNC(=O)/N=C(/N)NCCC[C@@H](NC(=O)C(c1ccccc1)c1ccc(NCCCNC(=O)CN2CCC(NC(=O)CN3CCN(CC(=O)O)CCN(CC(=O)O)CCN(CC(=O)O)CC3)CC2)cc1)C(=O)NCc1ccc(O)cc1 (single isomer, unassigned) [Compound 133A] | < 10
15 | CCC(=O)NCCNC(=O)/N=C(/N)NCCC[C@@H](NC(=O)C(c1ccccc1)c1ccc(NCCCNC(=O)CN2CCC(NC(=O)CN3CCN(CC(=O)O)CCN(CC(=O)O)CCN(CC(=O)O)CC3)CC2)cc1)C(=O)NCc1ccc(O)cc1 (single isomer, unassigned) [Compound 133B] | < 10
16 | CCC(=O)NCCNC(=O)/N=C(/N)NCCC[C@@H](NC(=O)C(c1ccccc1)c1ccc(NCCCNC(=O)[C@H](N)CCCNC(=O)[C@@H](Cc2ccc(-c3ccccc3)cc2)NC(=O)CN2CCN(CC(=O)O)CCN(CC(=O)O)CCN(CC(=O)O)CC2)cc1)C(=O)NCc1ccc(O)cc1 (single isomer, unassigned) [Compound 134A] | < 10
17 | CCC(=O)NCCNC(=O)/N=C(/N)NCCC[C@@H](NC(=O)C(c1ccccc1)c1ccc(NCCCNC(=O)[C@H](N)CCCNC(=O)CN2CCN(CC(=O)O)CCN(CC(=O)O)CCN(CC(=O)O)CC2)cc1)C(=O)NCc1ccc(O)cc1 (single isomer, unassigned) [Compound 135A] | < 10
18 | CCC(=O)NCCNC(=O)/N=C(/N)NCCC[C@@H](NC(=O)C(c1ccccc1)c1ccc(NCCCNC(=O)[C@H](N)CCCNC(=O)CN2CCN(CC(=O)O)CCN(CC(=O)O)CCN(CC(=O)O)CC2)cc1)C(=O)NCc1ccc(O)cc1 (single isomer, unassigned) [Compound 135B] | < 10
19 | CCC(=O)NCCNC(=O)/N=C(/N)NCCC[C@@H](NC(=O)C(c1ccccc1)c1ccc(OCCCNc2c(NCCNC(=O)CN3CCN(CC(=O)O)CCN(CC(=O)O)CCN(CC(=O)O)CC3)c(=O)c2=O)cc1)C(=O)NCc1ccc(O)cc1 (single isomer, unassigned) [Compound 136B] | < 10
20 | CCC(=O)NCCNC(=O)/N=C(/N)NCCC[C@@H](NC(=O)C(c1ccccc1)c1ccc(NCCCNc2c(NCCNC(=O)[C@@H](CN)NC(=O)CN3CCN(CC(=O)O)CCN(CC(=O)O)CCN(CC(=O)O)CC3)c(=O)c2=O)cc1)C(=O)NCc1ccc(O)cc1 (single isomer, unassigned) [Compound 137A] | < 10
21 | CCC(=O)NCCNC(=O)/N=C(/N)NCCC[C@@H](NC(=O)C(c1ccccc1)c1ccc(NCCCNc2c(NCCNC(=O)[C@@H](CN)NC(=O)CN3CCN(CC(=O)O)CCN(CC(=O)O)CCN(CC(=O)O)CC3)c(=O)c2=O)cc1)C(=O)NCc1ccc(O)cc1 (single isomer, unassigned) [Compound 137B] | < 10
22 | CCC(=O)NCCNC(=O)/N=C(/N)NCCC[C@@H](NC(=O)C(c1ccccc1)c1ccc(NCC(=O)N(C)CCCN(C)CCCN(C)C(=O)CN2CCN(CC(=O)O)CCN(CC(=O)O)CCN(CC(=O)O)CC2)cc1)C(=O)NCc1ccc(O)cc1 (single isomer, unassigned) [Compound 139A] | < 10
23 | CCC(=O)NCCNC(=O)/N=C(/N)NCCC[C@@H](NC(=O)C(c1ccccc1)c1ccc(NCC(=O)N(C)CCCN(C)CCCN(C)C(=O)CN2CCN(CC(=O)O)CCN(CC(=O)O)CCN(CC(=O)O)CC2)cc1)C(=O)NCc1ccc(O)cc1 (single isomer, unassigned) [Compound 139B] | < 10
24 | CCC(=O)NCCNC(=O)/N=C(/N)NCCC[C@@H](NC(=O)C(c1ccccc1)c1cccc(OCCCCNC(=O)CCCCCNC(=O)CN2CCN(CC(=O)O)CCN(CC(=O)O)CCN(CC(=O)O)CC2)c1)C(=O)NCc1ccc(O)cc1 (single isomer, unassigned) [Compound 140A] | < 10
25 | CCC(=O)NCCNC(=O)/N=C(/N)NCCC[C@@H](NC(=O)C(c1ccccc1)c1cccc(OCCCCNC(=O)CCCCCNC(=O)CN2CCN(CC(=O)O)CCN(CC(=O)O)CCN(CC(=O)O)CC2)c1)C(=O)NCc1ccc(O)cc1 (single isomer, unassigned) [Compound 140B] | < 10
26 | CCC(=O)NCCNC(=O)/N=C(/N)NCCC[C@@H](NC(=O)C(c1ccccc1)c1cccc(OCCCCNC(=O)[C@@H](CCCNC(=N)N)NC(=O)CCNC(=O)CN2CCN(CC(=O)O)CCN(CC(=O)O)CCN(CC(=O)O)CC2)c1)C(=O)NCc1ccc(O)cc1 (single isomer, unassigned) [Compound 141A] | < 10
27 | CCC(=O)NCCNC(=O)/N=C(/N)NCCC[C@@H](NC(=O)C(c1ccccc1)c1cccc(OCCCCNC(=O)[C@@H](CCCNC(=N)N)NC(=O)CCNC(=O)CN2CCN(CC(=O)O)CCN(CC(=O)O)CCN(CC(=O)O)CC2)c1)C(=O)NCc1ccc(O)cc1 (single isomer, unassigned) [Compound 141B] | < 10
28 | CCC(=O)NCCNC(=O)/N=C(/N)NCCC[C@@H](NC(=O)C(c1ccccc1)c1cccc(OCCCCNC(=O)[C@H](N)CCCCNC(=O)c2ccc(CNC(=O)CN3CCN(CC(=O)O)CCN(CC(=O)O)CCN(CC(=O)O)CC3)cc2)c1)C(=O)NCc1ccc(O)cc1 (single isomer, unassigned) [Compound 142A] | < 10

same assay, conditions: read-out: hNPY.R binding Ki* ††

Row | SMILES | Ki [nM]
29 | CCC(=O)NCCNC(=O)/N=C(/N)NCCC[C@@H](NC(=O)C(c1ccccc1)c1ccc(OCCCNc2c(NCCNC(=O)CN3CCN(CC(=O)O)CCN(CC(=O)O)CCN(CC(=O)O)CC3)c(=O)c2=O)cc1)C(=O)NCc1ccc(O)cc1 (single isomer, unassigned) [Compound 136A] | < 10
